In US20240158370A1, “CK1 alpha AND DUAL CK1 alpha / GSPT1 DEGRADING COMPOUNDS” (Innovo Therapeutics, Inc., priority 2022, published 2024):

Experiments:
CK1α = target: T1, CK1α (Homo sapiens, UniProt P48729+Q96SW2); test: HiBiT degradation assay, CK1α, Procedure A; type: cell-based; settings: six hours
T1 construct: CSNK1A1-HiBit KI HEK293(LgBit) Cells; host or cells: HEK293(LgBit) knock-in cells
In short: (§1)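 Luminescence from HiBiT lytic detection reports remaining tagged protein after cells sit six hours at 37° C with compound across ten concentrations (10 μM down to 0.005 μM, 0.1% DMSO). A 4-parameter curve fit gives DC50 and Ymin.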

GSPT1 = GSPT1 (Homo sapiens, UniProt P15170+Q96SW2); test: HiBiT degradation assay, GSPT1, Procedure A; type: cell-based; parameters: HiBit-GSPT1 KI HEK293(LgBit) Cells; host or cells: HEK293(LgBit) knock-in cells; settings: six hours
Sequence of GSPT1 (P15170 whole entry): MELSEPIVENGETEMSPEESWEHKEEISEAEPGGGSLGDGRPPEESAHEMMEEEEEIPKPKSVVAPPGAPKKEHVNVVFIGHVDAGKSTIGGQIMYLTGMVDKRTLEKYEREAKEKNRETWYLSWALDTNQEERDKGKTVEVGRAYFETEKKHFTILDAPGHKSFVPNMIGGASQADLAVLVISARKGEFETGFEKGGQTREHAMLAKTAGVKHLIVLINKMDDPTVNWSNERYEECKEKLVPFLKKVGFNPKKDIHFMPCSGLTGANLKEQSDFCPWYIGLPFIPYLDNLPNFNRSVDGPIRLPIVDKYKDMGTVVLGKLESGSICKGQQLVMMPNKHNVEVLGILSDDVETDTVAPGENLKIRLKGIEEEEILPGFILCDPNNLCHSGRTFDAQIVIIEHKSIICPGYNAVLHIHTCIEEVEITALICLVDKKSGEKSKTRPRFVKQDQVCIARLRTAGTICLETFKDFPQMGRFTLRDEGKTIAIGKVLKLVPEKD
Sequence of GSPT1 (Q96SW2 whole entry): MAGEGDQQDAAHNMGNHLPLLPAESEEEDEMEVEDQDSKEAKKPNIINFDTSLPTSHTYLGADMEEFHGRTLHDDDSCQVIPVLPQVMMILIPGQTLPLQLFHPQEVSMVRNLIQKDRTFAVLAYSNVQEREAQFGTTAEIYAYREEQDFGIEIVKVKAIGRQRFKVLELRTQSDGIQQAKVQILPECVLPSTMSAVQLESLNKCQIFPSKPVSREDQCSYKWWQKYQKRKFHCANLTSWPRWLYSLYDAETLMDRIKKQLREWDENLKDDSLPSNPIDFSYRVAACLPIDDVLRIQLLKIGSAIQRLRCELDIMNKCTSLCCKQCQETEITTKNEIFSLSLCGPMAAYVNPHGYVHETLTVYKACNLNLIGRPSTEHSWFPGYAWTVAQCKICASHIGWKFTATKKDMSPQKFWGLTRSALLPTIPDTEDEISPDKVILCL
Sequence of GSPT1 (Q16531 whole entry partner): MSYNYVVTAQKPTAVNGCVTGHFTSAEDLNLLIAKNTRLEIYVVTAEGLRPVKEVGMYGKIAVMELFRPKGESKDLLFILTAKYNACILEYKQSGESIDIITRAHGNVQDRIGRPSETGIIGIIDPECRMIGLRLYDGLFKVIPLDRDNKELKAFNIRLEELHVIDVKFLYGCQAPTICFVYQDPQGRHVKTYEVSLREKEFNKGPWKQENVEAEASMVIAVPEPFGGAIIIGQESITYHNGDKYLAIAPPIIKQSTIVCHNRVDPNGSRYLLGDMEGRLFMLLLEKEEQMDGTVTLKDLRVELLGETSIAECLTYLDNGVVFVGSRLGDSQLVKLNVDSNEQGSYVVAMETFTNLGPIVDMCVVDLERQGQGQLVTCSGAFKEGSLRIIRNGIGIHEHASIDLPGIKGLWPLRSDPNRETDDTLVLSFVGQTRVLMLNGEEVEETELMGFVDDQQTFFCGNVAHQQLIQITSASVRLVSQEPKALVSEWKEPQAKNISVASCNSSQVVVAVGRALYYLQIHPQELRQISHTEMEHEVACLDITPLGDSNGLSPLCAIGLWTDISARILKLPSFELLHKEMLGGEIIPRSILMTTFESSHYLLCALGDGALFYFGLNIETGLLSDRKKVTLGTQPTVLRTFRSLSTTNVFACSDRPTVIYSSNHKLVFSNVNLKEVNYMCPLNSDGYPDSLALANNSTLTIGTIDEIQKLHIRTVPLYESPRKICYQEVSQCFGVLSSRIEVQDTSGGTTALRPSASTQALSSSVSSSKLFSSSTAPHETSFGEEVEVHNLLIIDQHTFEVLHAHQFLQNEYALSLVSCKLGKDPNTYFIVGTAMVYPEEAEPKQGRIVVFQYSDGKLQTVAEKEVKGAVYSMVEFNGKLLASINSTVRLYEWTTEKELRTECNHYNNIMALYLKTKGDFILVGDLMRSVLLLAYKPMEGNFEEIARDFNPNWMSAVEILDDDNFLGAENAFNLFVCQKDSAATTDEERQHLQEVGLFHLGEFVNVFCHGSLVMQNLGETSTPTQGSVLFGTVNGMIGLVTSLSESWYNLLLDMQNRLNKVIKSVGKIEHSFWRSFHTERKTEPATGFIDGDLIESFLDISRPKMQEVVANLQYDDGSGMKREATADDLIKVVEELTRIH
In short: as §1

T1 sequence (P48729 whole entry): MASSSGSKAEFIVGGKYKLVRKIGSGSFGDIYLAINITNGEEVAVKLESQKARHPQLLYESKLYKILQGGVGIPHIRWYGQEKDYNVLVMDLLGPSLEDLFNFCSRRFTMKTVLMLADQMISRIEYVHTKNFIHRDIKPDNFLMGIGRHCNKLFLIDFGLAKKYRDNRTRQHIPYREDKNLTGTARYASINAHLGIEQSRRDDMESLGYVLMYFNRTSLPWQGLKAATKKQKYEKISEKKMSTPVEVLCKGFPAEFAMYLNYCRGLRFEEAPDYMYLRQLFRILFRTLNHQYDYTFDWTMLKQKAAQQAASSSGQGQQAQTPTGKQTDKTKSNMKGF
T1 sequence (Q96SW2 whole entry): as the sequence (Q96SW2 whole entry) above
T1 sequence (Q16531 whole entry partner): as the sequence (Q16531 whole entry partner) above

CK1α Ymin (CK1α)	DC50 (CK1α) [nM]	DC50 (GSPT1) [nM]	GSPT1 Ymin (GSPT1)	Compound
C (C = 0-10% remaining)	< 25	≥ 25	F (F = >75-100% remaining)	Cn1cnc(-c2ccc3c(c2)CN(C2CCC(=O)NC2=O)C3=O)c1-c1ccc2c(cnn2C)c1 (centres unmarked) [Example 513]
C (C = 0-10% remaining)	< 25	≥ 25	E (E = >25-75% remaining)	Cn1cnc(-c2ccc3c(c2)CN(C2CCC(=O)NC2=O)C3=O)c1-c1ccc2c(c1)CCCO2 (centres unmarked) [Example 514]
C (C = 0-10% remaining)	< 25	< 25	E (E = >25-75% remaining)	Cn1cnc(-c2ccc3c(c2)CN(C2CCC(=O)NC2=O)C3=O)c1-c1ccc2sccc2c1 (centres unmarked) [Example 515]
D (D = >10- 25% remaining)	< 25	< 25	F (F = >75-100% remaining)	Cn1cnc(-c2ccc3c(c2)CN(C2CCC(=O)NC2=O)C3=O)c1-c1cccc(-n2cccn2)c1 (centres unmarked) [Example 516]
E (E = >25-75% remaining)	≥ 25	< 25	F (F = >75-100% remaining)	Cn1cnc(-c2ccc3c(c2)CN(C2CCC(=O)NC2=O)C3=O)c1-c1cnn(C2CCCCC2)c1 (centres unmarked) [Example 517]
E (E = >25-75% remaining)	≥ 25	≥ 25	F (F = >75-100% remaining)	Cn1cnc(-c2ccc3c(c2)CN(C2CCC(=O)NC2=O)C3=O)c1-c1cncnc1 (centres unmarked) [Example 520]
C (C = 0-10% remaining)	< 25	< 25	E (E = >25-75% remaining)	Cn1ccc(-c2c(-c3ccc4c(c3)CN(C3CCC(=O)NC3=O)C4=O)ncn2C)c1 (centres unmarked) [Example 521]
D (D = >10- 25% remaining)	≥ 25	≥ 25	E (E = >25-75% remaining)	Cn1cnc(-c2ccc3c(c2)CN(C2CCC(=O)NC2=O)C3=O)c1-c1ccc(N)nc1 (centres unmarked) [Example 522]
D (D = >10- 25% remaining)	≥ 25	≥ 25	E (E = >25-75% remaining)	Cn1cnc(-c2ccc3c(c2)CN(C2CCC(=O)NC2=O)C3=O)c1-c1cncc(N)c1 (centres unmarked) [Example 523]
E (E = >25-75% remaining)	≥ 25	≥ 25	F (F = >75-100% remaining)	COc1ccncc1-c1c(-c2ccc3c(c2)CN(C2CCC(=O)NC2=O)C3=O)ncn1C (centres unmarked) [Example 524]
C (C = 0-10% remaining)	< 25	< 25	C (C = 0-10% remaining)	Cn1cnc(-c2ccc3c(c2)CN(C2CCC(=O)NC2=O)C3=O)c1-c1ccc2cc[nH]c2c1 (centres unmarked) [Example 525]
E (E = >25-75% remaining)	< 25	< 25	F (F = >75-100% remaining)	Cn1cnc(-c2ccc3c(c2)CN(C2CCC(=O)NC2=O)C3=O)c1-c1cccc2cc[nH]c12 (centres unmarked) [Example 526]
D (D = >10- 25% remaining)	< 25	< 25	E (E = >25-75% remaining)	Cn1cnc(-c2ccc3c(c2)CN(C2CCC(=O)NC2=O)C3=O)c1-c1cc2ccccc2[nH]1 (centres unmarked) [Example 527]
D (D = >10- 25% remaining)	≥ 25	≥ 25	E (E = >25-75% remaining)	Cn1cnc(-c2ccc3c(c2)CN(C2CCC(=O)NC2=O)C3=O)c1-c1ccc2nccn2c1 (centres unmarked) [Example 528]
D (D = >10- 25% remaining)	< 25	< 25	F (F = >75-100% remaining)	Cn1cnc(-c2ccc3c(c2)CN(C2CCC(=O)NC2=O)C3=O)c1-c1ccc2ccn(C)c2c1 (centres unmarked) [Example 529]
E (E = >25-75% remaining)	< 25	< 25	F (F = >75-100% remaining)	Cn1cnc(-c2ccc3c(c2)CN(C2CCC(=O)NC2=O)C3=O)c1-c1ccn(-c2ccc(F)cc2)n1 (centres unmarked) [Example 530]
C (C = 0-10% remaining)	≥ 25	≥ 25	E (E = >25-75% remaining)	Cn1cnc(-c2ccc3c(c2)CN(C2CCC(=O)NC2=O)C3=O)c1-c1cn[nH]c1 (centres unmarked) [Example 531]
D (D = >10- 25% remaining)	< 25	≥ 25	F (F = >75-100% remaining)	Cn1cc(-c2ccc3c(c2)CN(C2CCC(=O)NC2=O)C3=O)nc1C1CCOCC1 (centres unmarked) [Example 532, 3-(5-(1-methyl-2-(tetrahydro-2H-pyran-4-yl)-1H-imidazol-4-yl)-1-oxoisoindolin-2-yl)piperidine-2,6-dione]
E (E = >25-75% remaining)	≥ 25	≥ 25	F (F = >75-100% remaining)	Cn1nc(-c2ccc3c(c2)CN(C2CCC(=O)NC2=O)C3=O)cc1-c1cncnc1 (centres unmarked) [Example 533]
D (D = >10- 25% remaining)	< 25	≥ 25	F (F = >75-100% remaining)	Cn1cc(-c2ccc3c(c2)CN(C2CCC(=O)NC2=O)C3=O)nc1C1CCC2(CC1)CC2 (centres unmarked) [Example 534, 3-(5-(1-Methyl-2-(spiro[2.5]octan-6-yl)-1H-imidazol-4-yl)-1-oxoisoindolin-2-yl)piperidine-2,6-dione]
D (D = >10- 25% remaining)	≥ 25	≥ 25	F (F = >75-100% remaining)	Cn1c(C2CCOCC2)nc(-c2ccc3c(c2)CN(C2CCC(=O)NC2=O)C3=O)c1-c1cncnc1 (centres unmarked) [Example 535, 3-(5-(1-methyl-5-(pyrimidin-5-yl)-2-(tetrahydro-2H-pyran-4-yl)-1H-imidazol-4-yl)-1-oxoisoindolin-2-yl)piperidine-2,6-dione]
F (F = >75-100% remaining)	≥ 25	≥ 25	F (F = >75-100% remaining)	O=C1CCC(N2Cc3cc(-c4cn(C(F)F)nc4-c4cncnc4)ccc3C2=O)C(=O)N1 (centres unmarked) [Example 536, 3-(5-(1-(difluoromethyl)-3-(pyrimidin-5-yl)-1H-pyrazol-4-yl)-1-oxoisoindolin-2-yl)piperidine-2,6-dione]
D (D = >10- 25% remaining)	< 25	≥ 25	F (F = >75-100% remaining)	Cn1c(-c2ccc3c(c2)CN(C2CCC(=O)NC2=O)C3=O)cnc1N1CCCCC1 (centres unmarked) [Example 537, 3-(5-(1-methyl-2-(piperidin-1-yl)-1H-imidazol-5-yl)-1-oxoisoindolin-2-yl)piperidine-2,6-dione]
D (D = >10- 25% remaining)	< 25	≥ 25		Cn1nc(-c2ccc3c(c2)CN(C2CCC(=O)NC2=O)C3=O)cc1C1CCOCC1 (centres unmarked) [Example 538, 3-(5-(1-methyl-5-(tetrahydro-2H-pyran-4-yl)-1H-pyrazol-3-yl)-1-oxoisoindolin-2-yl)piperidine-2,6-dione]
E (E = >25-75% remaining)	< 25	≥ 25	F (F = >75-100% remaining)	Cn1cc(-c2ccc3c(c2)CN(C2CCC(=O)NC2=O)C3=O)nc1C1CCC(C)(C)CC1 (centres unmarked) [Example 539, 3-(5-(2-(4,4-dimethylcyclohexyl)-1-methyl-1H-imidazol-4-yl)-1-oxoisoindolin-2-yl)piperidine-2,6-dione]
C (C = 0-10% remaining)	< 25	≥ 25	F (F = >75-100% remaining)	Cn1c(C(F)F)nc(-c2ccc3c(c2)CN(C2CCC(=O)NC2=O)C3=O)c1-c1cncnc1 (centres unmarked) [Example 540, 3-(5-(2-(difluoromethyl)-1-methyl-5-(pyrimidin-5-yl)-1H-imidazol-4-yl)-1-oxoisoindolin-2-yl)piperidine-2,6-dione]
D (D = >10- 25% remaining)	< 25	< 25	F (F = >75-100% remaining)	Cn1ncc(-c2ccc3c(c2)CN(C2CCC(=O)NC2=O)C3=O)c1-c1ccc(C(C)(F)F)cc1 (centres unmarked) [Example 541, 3-(5-(5-(4-(1,1-difluoroethyl)phenyl)-1-methyl-1H-pyrazol-4-yl)-1-oxoisoindolin-2-yl)piperidine-2,6-dione]
C (C = 0-10% remaining)	< 25	< 25	F (F = >75-100% remaining)	Cn1ncc(-c2ccc3c(c2)CN(C2CCC(=O)NC2=O)C3=O)c1-c1ccc2c(c1)OC(F)(F)O2 (centres unmarked) [Example 542, 3-(5-(5-(2,2-difluorobenzo[d][1,3]dioxol-5-yl)-1-methyl-1H-pyrazol-4-yl)-1-oxoisoindolin-2-yl)piperidine-2,6-dione]
C (C = 0-10% remaining)	< 25	≥ 25	F (F = >75-100% remaining)	CC(C)c1nc(-c2ccc3c(c2)CN(C2CCC(=O)NC2=O)C3=O)c(-c2cncnc2)n1C (centres unmarked) [Example 543, 3-[5-(2-isopropyl-1-methyl-5-pyrimidin-5-yl-imidazol-4-yl)-1-oxo-isoindolin-2-yl]piperidine-2,6-dione]
E (E = >25-75% remaining)	≥ 25	≥ 25	F (F = >75-100% remaining)	Cc1nc(-c2ccc3c(c2)CN(C2CCC(=O)NC2=O)C3=O)c(-c2cncnc2)n1C (centres unmarked) [Example 544, 3-(5-(1,2-dimethyl-5-(pyrimidin-5-yl)-1H-imidazol-4-yl)-1-oxoisoindolin-2-yl)piperidine-2,6-dione]
